Source: PubChem BioAssay (NCI)
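Values below derive from 48-hour exposures of cells grown in 96-well plates, with endpoints linearly interpolated between the two concentrations bracketing the appropriate inhibition level. TGI: concentration producing complete growth inhibition.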

How the values were obtained:
Assay in all cases: growth of human tumour cells (NCI), 48 h
OVCAR-8 ovarian = system: OVCAR-8 ovarian
HOP-92 NSCLC = system: HOP-92 NSCLC
RPMI-8226 leukemia = system: RPMI-8226 leukemia
T-47D breast = system: T-47D breast
A549 NSCLC = system: A549 NSCLC
MALME-3M melanoma = system: MALME-3M melanoma
OVCAR-5 ovarian = system: OVCAR-5 ovarian
HCT-15 colon = system: HCT-15 colon
IGROV1 ovarian = system: IGROV1 ovarian
LOX IMVI melanoma = system: LOX IMVI melanoma
SF-295 CNS = system: SF-295 CNS
MDA-MB-231 breast = system: MDA-MB-231 breast
OVCAR-4 ovarian = system: OVCAR-4 ovarian
SW-620 colon = system: SW-620 colon
MDA-N = system: MDA-N
CCRF-CEM leukemia = system: CCRF-CEM leukemia
RXF 393 renal = system: RXF 393 renal
HS 578T breast = system: HS 578T breast
SF-539 CNS = system: SF-539 CNS
HOP-62 NSCLC = system: HOP-62 NSCLC
UACC-62 melanoma = system: UACC-62 melanoma
COLO 205 colon = system: COLO 205 colon
NCI-H23 lung = system: NCI-H23 lung
SNB-19 CNS = system: SNB-19 CNS
NCI-H226 lung = system: NCI-H226 lung
M14 melanoma = system: M14 melanoma
UO-31 renal = system: UO-31 renal
PC-3 prostate = system: PC-3 prostate
CAKI-1 renal = system: CAKI-1 renal
BT-549 breast = system: BT-549 breast
SNB-75 CNS = system: SNB-75 CNS
HCT-116 colon = system: HCT-116 colon
SK-MEL-28 melanoma = system: SK-MEL-28 melanoma
SK-OV-3 ovarian = system: SK-OV-3 ovarian
NCI-H460 lung = system: NCI-H460 lung
MOLT-4 leukemia = system: MOLT-4 leukemia
U251 CNS = system: U251 CNS
KM12 colon = system: KM12 colon
HCC-2998 colon = system: HCC-2998 colon
SR leukemia = system: SR leukemia
SN12C renal = system: SN12C renal
786-0 renal = system: 786-0 renal
UACC-257 melanoma = system: UACC-257 melanoma
DU-145 prostate = system: DU-145 prostate
NCI-H522 lung = system: NCI-H522 lung
NCI/ADR-RES ovarian = system: NCI/ADR-RES ovarian
TK-10 renal = system: TK-10 renal
MCF7 breast = system: MCF7 breast
EKVX NSCLC = system: EKVX NSCLC
HT29 colon = system: HT29 colon
MDA-MB-435 = system: MDA-MB-435
A498 renal = system: A498 renal
SK-MEL-2 melanoma = system: SK-MEL-2 melanoma
SK-MEL-5 melanoma = system: SK-MEL-5 melanoma
OVCAR-3 ovarian = system: OVCAR-3 ovarian
SF-268 CNS = system: SF-268 CNS
ACHN renal = system: ACHN renal
HL-60(TB) leukemia = system: HL-60(TB) leukemia
K-562 leukemia = system: K-562 leukemia

COC1CCC(OC2CC(C3(C)CCC4(CC(O)C(C)C(C(C)/C=C(\C)C(=O)C(C)CC(C)C(=O)O)O4)O3)OC3(OC(C4OC(O)(CO)C(C)CC4C)CC3C)C2C)OC1C (stereo not given)
TGI (OVCAR-8 ovarian): 1870 nM
TGI (HOP-92 NSCLC): 2770 nM
TGI (RPMI-8226 leukemia): < 0.0386 µM
TGI (T-47D breast): 1220 nM
TGI (A549 NSCLC): 1970 nM
TGI (MALME-3M melanoma): 103 nM
TGI (OVCAR-5 ovarian): 13.1 µM
TGI (HCT-15 colon): 1950 nM
TGI (IGROV1 ovarian): 16.2 µM
TGI (LOX IMVI melanoma): 941 nM
TGI (SF-295 CNS): 1790 nM
TGI (MDA-MB-231 breast): 517 nM
TGI (OVCAR-4 ovarian): 10.3 µM
TGI (SW-620 colon): 1880 nM
TGI (MDA-N): 549 nM
TGI (CCRF-CEM leukemia): 509 nM
TGI (RXF 393 renal): 225 nM
TGI (HS 578T breast): 1150 nM
TGI (SF-539 CNS): 1170 nM
TGI (HOP-62 NSCLC): 2870 nM
TGI (UACC-62 melanoma): 298 nM
TGI (COLO 205 colon): 175 nM
TGI (NCI-H23 lung): 1130 nM
TGI (SNB-19 CNS): 355 nM
TGI (NCI-H226 lung): 3.13 µM
TGI (M14 melanoma): 287 nM
TGI (UO-31 renal): 5.91 µM
TGI (PC-3 prostate): 3.14 µM
TGI (CAKI-1 renal): 2210 nM
TGI (BT-549 breast): 1260 nM
TGI (SNB-75 CNS): 568 nM
TGI (HCT-116 colon): 1660 nM
TGI (SK-MEL-28 melanoma): 189 nM
TGI (SK-OV-3 ovarian): 10.9 µM
TGI (NCI-H460 lung): 1600 nM
TGI (MOLT-4 leukemia): 339 nM
TGI (U251 CNS): 817 nM
TGI (KM12 colon): 1310 nM
TGI (HCC-2998 colon): 1610 nM
TGI (SR leukemia): < 0.0134 µM
TGI (SN12C renal): 1550 nM
TGI (786-0 renal): 1210 nM
TGI (UACC-257 melanoma): 1520 nM
TGI (DU-145 prostate): 3.63 µM
TGI (NCI-H522 lung): 260 nM
TGI (NCI/ADR-RES ovarian): 6.65 µM
TGI (TK-10 renal): 5.79 µM
TGI (MCF7 breast): 1910 nM
TGI (EKVX NSCLC): 9.64 µM
TGI (HT29 colon): 2190 nM
TGI (MDA-MB-435): 564 nM
TGI (A498 renal): 336 nM
TGI (SK-MEL-2 melanoma): 576 nM
TGI (SK-MEL-5 melanoma): 464 nM
TGI (OVCAR-3 ovarian): 2580 nM
TGI (SF-268 CNS): 2840 nM
TGI (ACHN renal): 4.9 µM

OCCCNCc1ccccn1
TGI (OVCAR-8 ovarian): > 100000 nM
TGI (HOP-92 NSCLC): > 100000 nM
TGI (RPMI-8226 leukemia): > 100 µM
TGI (T-47D breast): > 100000 nM
TGI (A549 NSCLC): > 100000 nM
TGI (MALME-3M melanoma): > 100000 nM
TGI (OVCAR-5 ovarian): > 100 µM
TGI (HCT-15 colon): > 100000 nM
TGI (IGROV1 ovarian): > 100 µM
TGI (LOX IMVI melanoma): > 100000 nM
TGI (SF-295 CNS): > 100000 nM
TGI (MDA-MB-231 breast): > 100000 nM
TGI (OVCAR-4 ovarian): > 100 µM
TGI (SW-620 colon): > 100000 nM
TGI (MDA-N): > 100000 nM
TGI (CCRF-CEM leukemia): > 100000 nM
TGI (RXF 393 renal): > 100000 nM
TGI (HS 578T breast): > 100000 nM
TGI (SF-539 CNS): > 100000 nM
TGI (HOP-62 NSCLC): > 100000 nM
TGI (UACC-62 melanoma): > 100000 nM
TGI (COLO 205 colon): > 100000 nM
TGI (NCI-H23 lung): > 100000 nM
TGI (SNB-19 CNS): > 100000 nM
TGI (NCI-H226 lung): > 100 µM
TGI (M14 melanoma): > 100000 nM
TGI (UO-31 renal): > 100 µM
TGI (PC-3 prostate): > 100 µM
TGI (CAKI-1 renal): > 100000 nM
TGI (BT-549 breast): > 100000 nM
TGI (SNB-75 CNS): > 100000 nM
TGI (HCT-116 colon): > 100000 nM
TGI (SK-MEL-28 melanoma): > 100000 nM
TGI (SK-OV-3 ovarian): > 100 µM
TGI (NCI-H460 lung): > 100000 nM
TGI (MOLT-4 leukemia): > 100000 nM
TGI (U251 CNS): > 100000 nM
TGI (KM12 colon): > 100000 nM
TGI (HL-60(TB) leukemia): > 100 µM
TGI (SR leukemia): > 100 µM
TGI (K-562 leukemia): > 100 µM
TGI (SN12C renal): > 100000 nM
TGI (786-0 renal): > 100000 nM
TGI (UACC-257 melanoma): > 100000 nM
TGI (DU-145 prostate): > 100 µM
TGI (NCI-H522 lung): > 100000 nM
TGI (NCI/ADR-RES ovarian): > 100 µM
TGI (TK-10 renal): > 100 µM
TGI (MCF7 breast): > 100000 nM
TGI (EKVX NSCLC): > 100 µM
TGI (HT29 colon): > 100000 nM
TGI (MDA-MB-435): > 100000 nM
TGI (A498 renal): > 100000 nM
TGI (SK-MEL-2 melanoma): > 100000 nM
TGI (SK-MEL-5 melanoma): > 100000 nM
TGI (OVCAR-3 ovarian): > 100000 nM
TGI (SF-268 CNS): > 100000 nM
TGI (ACHN renal): > 100 µM
